Measurements: the NIST ThermoML archive (doi:10.1021/je0501078)
Numbers after ± are expanded uncertainties.

Columns and labels:
[1] = Molar enthalpy of transition or fusion; settings: Crystal
[2] = Crystal
[3] = molar heat capacity at constant pressure; settings: 101.33 kPa

In the case of `O=C1CCCCC1C1(O)CCCCC1` (centres undefined) [1'-hydroxy-[1,1'-bicyclohexyl]-2-one], the “Molar enthalpy of transition or fusion” value ([1]; Adiabatic calorimetry) is reported as 4.974 ± 0.00813 kcal/mol, the “Molar enthalpy of transition or fusion” value ([1]; DSC) is reported as 4.95 ± 0.148 kcal/mol and the mass density ([2]; 292 K, 101.33 kPa, Pycnometric method) is reported as 1140 ± 20 kg/m3. For the same molecule, the Triple point temperature ([2]; Adiabatic calorimetry) was 306.75 ± 0.05 K, the Triple point temperature ([2]; DSC) was 306.9 ± 0.8 K and the “molar heat capacity at constant pressure” value ([3]; 5 K, Crystal) was 0.496 ± 0.047 J/K/mol. The “molar heat capacity at constant pressure” value ([3]; 10 K, Crystal) was 3.909 ± 0.13 J/K/mol, the “molar heat capacity at constant pressure” value ([3]; 15 K, Crystal) was 10.08 ± 0.24 J/K/mol and the “molar heat capacity at constant pressure” value ([3]; 20 K, Crystal) was 17.48 ± 0.33 J/K/mol. For the same molecule, the “molar heat capacity at constant pressure” value ([3]; 25 K, Crystal) was 25.17 ± 0.38 J/K/mol, the “molar heat capacity at constant pressure” value ([3]; 30 K, Crystal) was 32.48 ± 0.32 J/K/mol and the “molar heat capacity at constant pressure” value ([3]; 35 K, Crystal) was 39.18 ± 0.37 J/K/mol. The “molar heat capacity at constant pressure” value ([3]; 40 K, Crystal) was 45.5 ± 0.42 J/K/mol, the “molar heat capacity at constant pressure” value ([3]; 45 K, Crystal) was 51.25 ± 0.45 J/K/mol and the “molar heat capacity at constant pressure” value ([3]; 50 K, Crystal) was 56.58 ± 0.49 J/K/mol. For the same molecule, the “molar heat capacity at constant pressure” value ([3]; 60 K, Crystal) was 66.47 ± 0.56 J/K/mol, the “molar heat capacity at constant pressure” value ([3]; 70 K, Crystal) was 75.55 ± 0.62 J/K/mol and the “molar heat capacity at constant pressure” value ([3]; 80 K, Crystal) was 84.14 ± 0.67 J/K/mol. The “molar heat capacity at constant pressure” value ([3]; 90 K, Crystal) was 92.37 ± 0.92 J/K/mol, the “molar heat capacity at constant pressure” value ([3]; 100 K, Crystal) was 100.7 ± 0.92 J/K/mol and the “molar heat capacity at constant pressure” value ([3]; 110 K, Crystal) was 108.6 ± 1 J/K/mol. For the same molecule, the “molar heat capacity at constant pressure” value ([3]; 120 K, Crystal) was 116.4 ± 1 J/K/mol, the “molar heat capacity at constant pressure” value ([3]; 130 K, Crystal) was 124.2 ± 1.1 J/K/mol and the “molar heat capacity at constant pressure” value ([3]; 140 K, Crystal) was 132 ± 1.1 J/K/mol. The “molar heat capacity at constant pressure” value ([3]; 150 K, Crystal) was 139.8 ± 1.1 J/K/mol, the “molar heat capacity at constant pressure” value ([3]; 160 K, Crystal) was 147.7 ± 1.2 J/K/mol and the “molar heat capacity at constant pressure” value ([3]; 170 K, Crystal) was 155.8 ± 1.2 J/K/mol. For the same molecule, the “molar heat capacity at constant pressure” value ([3]; 180 K, Crystal) was 163.9 ± 1.2 J/K/mol, the “molar heat capacity at constant pressure” value ([3]; 190 K, Crystal) was 171.9 ± 1.2 J/K/mol and the “molar heat capacity at constant pressure” value ([3]; 200 K, Crystal) was 180 ± 1.3 J/K/mol. The “molar heat capacity at constant pressure” value ([3]; 210 K, Crystal) was 188.2 ± 1.3 J/K/mol, the “molar heat capacity at constant pressure” value ([3]; 220 K, Crystal) was 196.6 ± 1.3 J/K/mol and the “molar heat capacity at constant pressure” value ([3]; 230 K, Crystal) was 205.1 ± 1.4 J/K/mol. The “molar heat capacity at constant pressure” value ([3]; 240 K, Crystal) was 213.9 ± 1.4 J/K/mol, the “molar heat capacity at constant pressure” value ([3]; 250 K, Crystal) was 223.2 ± 1.5 J/K/mol and the “molar heat capacity at constant pressure” value ([3]; 260 K, Crystal) was 233.2 ± 1.6 J/K/mol. The “molar heat capacity at constant pressure” value ([3]; 270 K, Crystal) was 243.9 ± 1.6 J/K/mol, the “molar heat capacity at constant pressure” value ([3]; 280 K, Crystal) was 255.5 ± 1.7 J/K/mol and the “molar heat capacity at constant pressure” value ([3]; 290 K, Crystal) was 268 ± 1.7 J/K/mol. The “molar heat capacity at constant pressure” value ([3]; 300 K, Crystal) was 281.5 ± 1.7 J/K/mol, the “molar heat capacity at constant pressure” value ([3]; 306.75 K, Crystal) was 291.3 ± 1.8 J/K/mol and the “molar heat capacity at constant pressure” value ([3]; 306.75 K, Liquid, Large sample (1 g) DSC) was 350 ± 8.6 J/K/mol. The “molar heat capacity at constant pressure” value ([3]; 310 K, Liquid, Large sample (1 g) DSC) was 352 ± 8.6 J/K/mol, the “molar heat capacity at constant pressure” value ([3]; 320 K, Liquid, Large sample (1 g) DSC) was 359.3 ± 8.8 J/K/mol and the “molar heat capacity at constant pressure” value ([3]; 330 K, Liquid, Large sample (1 g) DSC) was 367.5 ± 9 J/K/mol. For the same molecule, the “molar heat capacity at constant pressure” value ([3]; 340 K, Liquid, Large sample (1 g) DSC) was 376.8 ± 9.2 J/K/mol, the “molar heat capacity at constant pressure” value ([3]; 350 K, Liquid, Large sample (1 g) DSC) was 387.2 ± 9.5 J/K/mol and the “molar heat capacity at constant pressure” value ([3]; 360 K, Liquid, Large sample (1 g) DSC) was 398.7 ± 9.7 J/K/mol. The “molar heat capacity at constant pressure” value ([3]; 370 K, Liquid, Large sample (1 g) DSC) was 411.2 ± 10 J/K/mol.
